In general, logP refers to a log measure of how a compound divides between an organic and an aqueous phase. The low end stands for a more hydrophilic compound, the high end for a more lipophilic compound.

Consider 28 compounds from the SangsterLogP compilation.

Compound `OCCS` gave a logP of -0.06.
As to `CC(=O)OCCl`, the logP amounted to 0.75.
In the case of `COS(=O)(=O)OC`, the logP was 0.03.
The compound `C=CC(=O)OCC` gave a logP of 1.2.
Take `CC(C)C(=O)O`: the logP turned out to be 0.88.
For the compound `CC(C)C=O`, the logP came out at 0.4.
`O=C1OC(=O)c2ccccc21` showed a log partition coefficient (logP) of 0.7.
For `CCCCOCCOCCOC(C)=O`, the logP was found to be 1.77.
`COCCOCCOCCO` had a logP of -0.7.
`OCCOCCO` gave a logP of -1.98.
For `CC(C)CC=O`, the log partition coefficient (logP) stood at 1.3.
Under `C1=CC2C3C=CC(C3)C2C1` (stereo not drawn) stands 2.9; under `OCCOCCOCCO`, -1.2; under `C=CC(=O)O`, 0.31.
For `O=P(OCCCl)(OCCCl)OCCCl`, the lipophilicity (logP) is 0.5.
Regarding `C/C=C/C=O`, the logP was determined as 0.6.
In turn, `CCCCOC(=O)c1ccccc1C(=O)OCc1ccccc1` registered a logP of 4.5.
Compound `C=C(C)CCl` showed a logP of 1.98.
`OCC#CCO` had a logP of -0.73.
`Cc1ccc(S(=O)(=O)O)cc1` came in with a logP of 0.09.
For the compound `CC[C@H](C)N`, the logP was found to be 0.6.
Under `CCCCC(CC)COC(=O)CCCCC(=O)OCC(CC)CCCC` (stereo not drawn) stands 8.1; under `CCCCCCCCCCO`, 4.2.
Under `CCCCCOC(C)=O` stands 2.
As for `NCCNCCN`, the log partition coefficient (logP) is -1.3.
For `C=CCCl`, the logP stood at 3.
Under `CCOCCOC(C)=O` stands 0.24.
As for `COCCOCCO`, the logP was -1.1.
